From US7541359B2, “N-heteroarylpiperazinyl ureas as modulators of fatty acid amide hydrolase” (Janssen Pharmaceutica N.V., priority 2005, dated 2009)

Columns and labels:
Format in all cases: biochemical
Rat FAAH = target: T1, Rat FAAH (Rattus norvegicus, UniProt P97612); experiment: Assay Method 3: FAAH assay, homogenate of SK-N-MC cells transfected with rat FAAH; conditions: rat FAAH transfected SK-N-MC cell homogenate; 3H-AEA tracer 80 nM; rt 1 h
T1 construct: expressed in transfected cells; host or cells: SK-N-MC cells, electroporated, G418-selected clones
T1 sequence (P97612 1-579): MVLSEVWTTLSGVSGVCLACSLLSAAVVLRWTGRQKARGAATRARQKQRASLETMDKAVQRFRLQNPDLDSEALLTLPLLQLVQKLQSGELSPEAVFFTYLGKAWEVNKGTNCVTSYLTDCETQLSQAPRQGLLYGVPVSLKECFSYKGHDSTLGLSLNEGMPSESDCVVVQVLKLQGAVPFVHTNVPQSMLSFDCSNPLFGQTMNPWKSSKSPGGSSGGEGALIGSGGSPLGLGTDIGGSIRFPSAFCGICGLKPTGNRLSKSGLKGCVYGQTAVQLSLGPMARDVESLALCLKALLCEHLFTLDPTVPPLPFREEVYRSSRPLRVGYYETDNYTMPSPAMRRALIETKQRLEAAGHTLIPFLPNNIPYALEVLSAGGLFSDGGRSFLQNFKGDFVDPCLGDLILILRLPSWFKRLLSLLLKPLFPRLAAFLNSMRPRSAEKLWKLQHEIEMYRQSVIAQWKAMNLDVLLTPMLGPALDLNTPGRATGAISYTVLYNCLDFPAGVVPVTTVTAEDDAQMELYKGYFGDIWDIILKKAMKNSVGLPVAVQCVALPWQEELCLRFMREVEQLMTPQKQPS
Description: Assay Method 3 A. Transfection of Cells with Rat FAAH
A 10-cm tissue culture dish with a confluent monolayer of SK-N-MC cells was split 2 days (d) prior to transfection. Using sterile technique, the media was removed and the cells were detached from the dish by the addition of trypsin. One fifth of the cells were then placed onto a new 10-cm dish. Cells were grown in a 37° C. incubator with 5% CO2 in Minimal Essential Media Eagle with 10% Fetal Bovine Serum. After 2 d, cells were approximately 80% confluent. These cells were removed from the dish with trypsin and pelleted in a clinical centrifuge. The pellet was re-suspended in 400 μL complete media and transferred to an electroporation cuvette with a 0.4 cm gap between the electrodes. Supercoiled rat FMH cDNA (1 μg) was added to the cells and mixed. The voltage for the electroporation was set at 0.25 kV, and the capacitance was set at 960 μF. After electroporation, the cells were diluted into complete media (10 mL) and plated onto four 10-cm dishes. Because of the variability in the efficiency of electroporation, four different concentrations of cells were plated. […] After 10 d, dishes were analyzed for surviving colonies of cells. Dishes with well-isolated colonies were used. Cells from individual colonies were isolated and tested.
The assay mixture consisted of 50 μL of the cell homogenate, 10 μL of the test compound, and 40 μL of anandamide [1-^3H-ethanolamine] (^3H-AEA, Perkin-Elmer, 10.3 Ci/mmol), which was added last, for a final tracer concentration of 80 nM. The reaction mixture was incubated at rt for 1 h. During the incubation, 96-well Multiscreen filter plates (catalog number MAFCNOB50: Millipore, Bedford, Mass., USA) were loaded with 25 μL of activated charcoal (Multiscreen column loader, catalog number MACL09625, Millipore) and washed once with 100 μL of MeOH. […] After the 1 h incubation, 60 μL of the reaction mixture were transferred to the charcoal plates, which were then assembled on top of the DYNEX plates using Centrifuge Alignment Frames (catalog number MACF09604, Millipore). The unbound labeled ethanolamine was centrifuged through to the bottom plate (5 min at 2000 rpm), which was preloaded with the scintillant, as described above. The plates were sealed and left at rt for 1 h before counting on a Hewlett Packard TopCount.

FAAH [1] = target: T2, FAAH (Homo sapiens, UniProt O00519); experiment: Assay Method 2: FAAH assay, homogenate of SK-N-MC cells transfected with human FAAH; design: expressed in transfected cells; host or cells: SK-N-MC cells, electroporated, G418-selected clones; conditions: human FAAH transfected SK-N-MC cell homogenate; 3H-AEA tracer 80 nM; rt 1 h
T2 sequence (O00519 1-579): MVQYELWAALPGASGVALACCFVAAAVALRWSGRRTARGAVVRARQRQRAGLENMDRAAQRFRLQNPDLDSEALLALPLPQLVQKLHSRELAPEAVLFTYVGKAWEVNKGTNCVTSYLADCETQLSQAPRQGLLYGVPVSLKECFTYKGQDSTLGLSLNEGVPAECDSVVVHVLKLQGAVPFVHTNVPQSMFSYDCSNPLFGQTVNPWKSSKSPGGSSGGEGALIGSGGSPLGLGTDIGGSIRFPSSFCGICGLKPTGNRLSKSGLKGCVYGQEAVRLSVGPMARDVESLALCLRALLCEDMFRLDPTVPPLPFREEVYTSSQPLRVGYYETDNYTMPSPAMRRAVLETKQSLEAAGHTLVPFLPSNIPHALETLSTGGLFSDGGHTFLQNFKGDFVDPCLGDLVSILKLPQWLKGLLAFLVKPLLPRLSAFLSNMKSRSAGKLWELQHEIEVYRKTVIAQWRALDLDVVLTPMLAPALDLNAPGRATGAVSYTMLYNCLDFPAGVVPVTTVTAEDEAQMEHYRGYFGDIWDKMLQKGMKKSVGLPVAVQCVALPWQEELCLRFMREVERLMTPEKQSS
Description: Assay Method 2 A. Transfection of Cells with Human FAAH
A 10-cm tissue culture dish with a confluent monolayer of SK-N-MC cells was split 2 days (d) prior to transfection. Using sterile technique, the media was removed and the cells were detached from the dish by the addition of trypsin. One fifth of the cells were then placed onto a new 10-cm dish. Cells were grown in a 37° C. incubator with 5% CO2 in Minimal Essential Media Eagle with 10% Fetal Bovine Serum. After 2 d, cells were approximately 80% confluent. These cells were removed from the dish with trypsin and pelleted in a clinical centrifuge. The pellet was re-suspended in 400 μL complete media and transferred to an electroporation cuvette with a 0.4 cm gap between the electrodes. Supercoiled human FMH cDNA (1 μg) was added to the cells and mixed. The voltage for the electroporation was set at 0.25 kV, and the capacitance was set at 960 μF. After electroporation, the cells were diluted into complete media (10 mL) and plated onto four 10-cm dishes. Because of the variability in the efficiency of electroporation, four different concentrations of cells were plated. The ratios used were 1:20, 1:10, and 1:5, with the remainder of the cells being added to the fourth dish. The cells were allowed to recover for 24 h before adding the selection media (complete media with 600 μg/mL G418). After 10 d, dishes were analyzed for surviving colonies of cells. Dishes with well-isolated colonies were used. Cells from individual colonies were isolated and tested.
The assay mixture consisted of 50 μL of the cell homogenate, 10 μL of the test compound, and 40 μL of anandamide [1-^3H-ethanolamine] (^3H-AEA, Perkin-Elmer, 10.3 Ci/mmol), which was added last, for a final tracer concentration of 80 nM. The reaction mixture was incubated at rt for 1 h. During the incubation, 96-well Multiscreen filter plates (catalog number MAFCNOB50; Millipore, Bedford, […]., USA) were loaded with 25 μL of activated charcoal (Multiscreen column loader, catalog number MACL09625, Millipore) and washed once with 100 μL of MeOH. Also during the incubation, 96-well DYNEX MicroLite plates (catalog number NL510410) were loaded with 100 μL of MicroScint40 (catalog number 6013641, Packard Bioscience, Meriden, Conn., USA). After the 1 h incubation, 60 μL of the reaction mixture were transferred to the charcoal plates, which were then assembled on top of the DYNEX plates using Centrifuge Alignment Frames (catalog number MACF09604, Millipore). The unbound labeled ethanolamine was centrifuged through to the bottom plate (5 min at 2000 rpm), which was preloaded with the scintillant, as described above. The plates were sealed and left at rt for 1 h before counting on a Hewlett Packard TopCount.

FAAH [2] = target: T2, FAAH; experiment: Assay Method 1: FAAH assay, T84 cell homogenate, 3H-anandamide hydrolysis; design: T84 frozen pellets (contents of 1-4×15 cm culture dishes) were homogenized in 300 mL of FAAH assay buffer; endogenous in cells; host or cells: T84 cells (homogenate); conditions: 3H-AEA tracer 200 nM, rt 1 h
Description: The assay mixture was prepared from 50 μL of the cell homogenate, 10 μL of the test compound, and 40 μL of anandamide [1-^3H-ethanolamine] (^3H-AEA; Perkin-Elmer, 10.3 Ci/mmol), which was added last, for a final tracer concentration of 200 nM. The reaction mixture was incubated at rt for 1 hour (h). During the incubation, 96-well Multiscreen filter plates (catalog number MAFCNOB50; Millipore, Bedford, Mass. USA) were loaded with 25 μL of activated charcoal (Multiscreen column loader, catalog number MACL09625, Millipore) and washed once with 100 μL of MeOH. […] After the 1 h incubation, 60 μL of the reaction mixture were transferred to the charcoal plates, which were then assembled on top of the DYNEX plates using Centrifuge Alignment Frames (catalog number MACF09604, Millipore). The unbound, labeled ethanolamine was centrifuged through to the bottom plate (5 min at 2000 rpm), which was preloaded with the scintillant, as described above. The plates were sealed and left at rt for 1 h before counting on a Hewlett Packard TopCount.

IC50 (Rat FAAH) [nM]	IC50 (FAAH [1]) [nM]	IC50 (FAAH [2]) [nM]	SMILES
46	–	–	O=C(Nc1ccccc1)N1CCN(c2nc(-c3ccccc3)ns2)CC1 [Example 1, 4-(3-Phenyl-[1,2,4]thiadiazol-5-yl)-piperazine-1-carboxylic acid phenylamide]
1100	260	–	O=C(Nc1ccccc1)N1CCN(c2nc(N3CCCCC3)ns2)CC1 [Example 27, 4-(3-Piperidin-1-yl-[1,2,4]thiadiazol-5-yl)-piperazine-1-carboxylic acid phenylamide]
5000	3000	–	O=C(Nc1ccccc1)N1CCN(c2nc(N3CCCC3)ns2)CC1 [Example 28, 4-(3-Pyrrolidin-1-yl-[1,2,4]thiadiazol-5-yl)-piperazine-1-carboxylic acid phenylamide]
5000	> 10000	–	CC1CCN(c2nsc(N3CCN(C(=O)Nc4ccccc4)CC3)n2)CC1 [Example 29, 4-[3-(4-Methyl-piperidin-1-yl)-[1,2,4]thiadiazol-5-yl]-piperazine-1-carboxylic acid phenylamide]
30	160	–	O=C(Nc1ncccn1)N1CCN(c2nc(-c3ccccc3)ns2)CC1 [Example 31, 4-(3-Phenyl-[1,2,4]thiadiazol-5-yl)-piperazine-1-carboxylic acid pyrimidin-2-ylamide]
77	450	–	O=C(Nc1nccs1)N1CCN(c2nc(-c3ccccc3)ns2)CC1 [Example 32, 4-(3-Phenyl-[1,2,4]thiadiazol-5-yl)-piperazine-1-carboxylic acid thiazol-2-ylamide]
18	–	28	O=C(Nc1ccncc1)N1CCN(c2nc(-c3ccccc3)ns2)CC1 [Example 33, 4-(3-Phenyl-[1,2,4]thiadiazol-5-yl)-piperazine-1-carboxylic acid pyridin-4-ylamide]
84	43	–	Cc1cccc(-c2nsc(N3CCN(C(=O)Nc4ccccc4)CC3)n2)c1 [Example 38, 4-(3-m-Tolyl-[1,2,4]thiadiazol-5-yl)-piperazine-1-carboxylic acid phenylamide]
57	60	–	O=C(Nc1ccccc1)N1CCN(c2nc(-c3cc(Cl)cc(Cl)c3)ns2)CC1 [Example 39, 4-[3-(3,5-Dichloro-phenyl)-[1,2,4]thiadiazol-5-yl]-piperazine-1-carboxylic acid phenylamide]
2000	540	–	O=C(Nc1ccccc1)N1CCN(c2nc(-c3ccco3)ns2)CC1 [Example 40, 4-(3-Furan-2-yl-[1,2,4]thiadiazol-5-yl)-piperazine-1-carboxylic acid phenylamide]
590	350	–	O=C(Nc1ccccc1)N1CCN(c2nc(-c3ccoc3)ns2)CC1 [Example 41, 4-(3-Furan-3-yl-[1,2,4]thiadiazol-5-yl)-piperazine-1-carboxylic acid phenylamide]
300	60	–	O=C(Nc1ccccc1)N1CCN(c2nc(-c3cccs3)ns2)CC1 [Example 42, 4-(3-Thiophen-2-yl-[1,2,4]thiadiazol-5-yl)-piperazine-1-carboxylic acid phenylamide]
120	130	–	O=C(Nc1ccccc1)N1CCN(c2nc(-c3ccsc3)ns2)CC1 [Example 43, 4-(3-Thiophen-3-yl-[1,2,4]thiadiazol-5-yl)-piperazine-1-carboxylic acid phenylamide]
> 10000	> 10000	–	O=C(Nc1ccccc1)N1CCN(c2nc(N3CCOCC3)ns2)CC1 [Example 44, 4-(3-Morpholin-4-yl-[1,2,4]thiadiazol-5-yl)-piperazine-1-carboxylic acid phenylamide]
